Laboratory results as given in patent US20240285557A1, “PHARMACEUTICAL COMPOSITION COMPRISING LIPASE INHIBITOR FOR TREATMENT OR TREATMENT OF RNA VIRAL INFECTIONS” (priority 2021, published 2024).
Where “and” joins values, the source holds several entries; their conditions need not be identical. Identical values can stand only once. Like-named read-outs stand apart in the source and are kept apart here.

Legend:
[1] = system: influenza A virus PR8 strain; test: Influenza A virus-infected mice treated with lipase inhibitor; assay type: in vivo, C57BL/6J mice; settings: for free fatty acids and glycerol concentrations in lung tissues / progeny virus numbers in lung tissues / virus gene numbers in lung tissues: 5 mg/kg/day for 4 days, sixth day post-infection; for lung lesions, including interstitial pneumonia, and number of virus-positive cells / number of lipid droplets in bronchiolar epithelial cells / viral antigen in the bronchiolar epithelial cells: 5 mg/kg/day, vs untreated virus-inoculated group; for survival rate: 15 days observation; for survival rate, weight loss, and clinical symptoms: 0.01 to 10 mg/kg/day, dose-dependent
Experimental: For use in verifying the antiviral effect of lipase inhibition in animals infected with influenza A virus, 150 mg/ml of atglistatin and 150 mg/ml of CAY10499 were dissolved in DMSO. To evaluate the antiviral effect depending on the concentration, the drugs were prepared at concentrations of 1.000, 0.500, 0.100, 0.010, and 0.001 mg/ml. […] The drugs were completely dissolved by vortexing.
For evaluating the antiviral efficacy of CAY10499, mouse groups were prepared in the same manner with the exception of using CAY10499 instead of atglistatin.
Influenza A virus inoculation was carried out on anesthetized mice via an intranasal route at 1,000 PFU per mouse, following the same procedure as above. In cases where the virus was not injected, only phosphate-buffered saline was administered. Observations were made for 15 days, during which survival rates, body weight, and clinical symptoms were monitored and recorded daily. […] Drug treatment began two days after the inoculation of influenza A virus.
The survival rate, which was 100% with a 0% mortality rate on day 0 of the infection, was measured daily over 15 days, and compared with the survival rate of the virus-injected and untreated group. Statistical significance was analyzed using the Log Rank Test, with a p value of 0.05 or […] considered significant.
Each group consisted of four seven-week-old female wild-type C57BL/6J mice, acclimatized for one week, and used in the experiment at eight weeks of age.
Mice were inoculated with influenza A virus PR8 strain in the same manner as described above, and drug treatment was conducted for 4 days, starting from the second day post-infection. On the sixth day post-infection, the mice were euthanized for autopsy.
These tissues were assayed for free fatty acid levels.
To evaluate lipid droplets and influenza A virus antigen in the lung tissues, the fixed tissues were prepared into 3-μm-thick frozen sections. […] After washing, the sections were mounted with Slow-Fade Gold antifade reagent for nucleus staining.
The sections were then finely cut at 3 μm thickness, deparaffinized in xylene, and rehydrated through graded alcohols and water. […] Histological examination was then performed using an optical microscope.
Immunohistochemistry was performed for influenza A virus antigens in the lung tissue.

[2] = system: Bovine coronavirus (KWD20); settings: for SI (CC50/IC50): Bovine coronavirus (KWD20); for IC50: HRT-18G cells, MOI 0.01 ffu/cell, drug added after 18 hours, additional 18 hours
[3] = system: Porcine epidemic diarrhea coronavirus (QIAP1401); settings: for IC50: Vero E6 cells, MOI 0.01 ffu/cell, drug added after 18 hours, additional 18 hours
[4] = system: Porcine respiratory reproductive syndrome virus (LMY); settings: for IC50: MARC-145 cells, MOI 0.01 ffu/cell, drug added after 18 hours, additional 18 hours; for SI (CC50/IC50): Porcine respiratory reproductive syndrome virus (LMY)
[5] = system: Influenza A virus (H1N1) (PR8)
[6] = system: Species A Rotavirus (NCDV); settings: for IC50: MA104 cells, MOI 0.01 ffu/cell, drug added after 12 hours, additional 12 hours; for SI (CC50/IC50): Species A Rotavirus (NCDV)
[7] = system: SARS-COV-2, IAV, BCOV, PEDV, RVA, PRRSV, and PSaV; test: Viral genome copy (real-time PCR) and progeny virus production in cells infected with seven RNA viruses; assay type: cell-based; settings: 1, 10, and 20 μM; dose-dependent, all seven viruses
Text: Subsequently, each well was washed three times with phosphate-buffered saline, followed by the addition of the respective viral culture media.
Subsequently, each plate underwent three cycles of freezing and thawing to detach the cells from each well for subsequent experiments.
To analyze the inhibitory effects of atglistatin and CAY10499 on the genome copies of each virus, RNA was extracted using the RNeasy mini kit (Qiagen). The extracted RNA was then used to synthesize cDNA using the TOPscript™ cDNA Synthesis kit (Enzynomics), which includes random hexamer and poly(rA)-oligo(dT). Afterward, real-time PCR was performed on the synthesized cDNA in the TOPreal™ qPCR 2× PreMix (Enzynomics) solution in the presence of specific primers for SARS-COV-2 nucleocapsid (N), influenza A virus PB1, bovine coronavirus spike (S), porcine epidemic diarrhea coronavirus nucleocapsid (N), bovine species A rotavirus VP6, porcine reproductive and respiratory syndrome virus matrix (M), and porcine sapovirus VPg, using the LineGene 9600 Plus Real-time PCR detection system (Bioer, Hangzhou, China).
To analyze the inhibitory effects of atglistatin and CAY10499 on the production of progenies of the viruses, the supernatant obtained after three cycles of freezing and thawing was serially ten-fold diluted. […] After adsorption, each well was washed twice with phosphate-buffered saline (pH 7.4), followed by the addition of the respective culture media.
Then, after removal of the supernatants, the cells were fixed with 4% paraformaldehyde for 15 minutes and each well was washed thrice with phosphate-buffered saline and treated with 0.2% Triton X-100 at 20° C. for 10 minutes.
After three washes with phosphate-buffered saline, the wells were treated with 100- to 200-fold diluted primary antibodies to the spike protein of SARS-COV-2, the nucleoprotein protein of influenza A virus, the spike protein of bovine coronavirus, the nucleocapsid protein of porcine epidemic diarrhea coronavirus, the VP6 protein of bovine species A rotavirus, the matrix protein of porcine reproductive and respiratory syndrome virus, and the VPg protein of porcine sapovirus, respectively, and applied to a refrigerator at 4° C. for 12 hours.
Subsequently, the supernatant was removed, and each well was washed thrice with phosphate-buffered saline, followed by incubation with a 100- to 200-fold dilution of a secondary antibody conjugated with Alexa Fluor 488 or fluorescein isothiocyanate at room temperature for 2 hours.
Each virus was allowed to adsorb onto the cells which were then cultured in a freshly changed medium containing DABPU-EM or DABPU-DE. Thereafter, the cells were detached from the wells for subsequent experiments.

[8] = system: Porcine sapovirus (Cowden); settings: for IC50: LLC-PK cells, MOI 0.01 ffu/cell, drug added after 18 hours, additional 18 hours; for SI (CC50/IC50): Porcine sapovirus (Cowden)
SARS-CoV-2 (KCDC03) = test: Half-maximal viral inhibitory concentration (IC50), immunofluorescence of virus-positive cells; settings: for SI (CC50/IC50): SARS-CoV-2 (KCDC03); for IC50: Vero E6 cells, MOI 0.01 ffu/cell, drug added after 18 hours, additional 18 hours
[9] = system: influenza A virus PR8 strain; test: Proliferation of influenza A virus in MRC-5, NCI-H293, WI-38, and Calu-3 cells; assay type: cell-based; settings: MRC-5, NCI-H293, WI-38, Calu-3 cells; 1, 10, 20 μM; vs solvent (vehicle)
[10] = system: SARS-COV-2 strain KCDC03, KDCA51463, or KDCA55905; test: Proliferation of SARS-CoV-2 in various cultured cells; assay type: cell-based; settings: Vero E6, Caco-2, Calu-3 cells (FIGS. 21a to 21f); vs solvent (vehicle)
[11] = 10 mg kg^−1 day^−1 intraperitoneally for four days from day 2 post infection, control 100% mortality
[12] = 5 mg kg^−1 day^−1 intraperitoneally for four days from day 2 post infection
[13] = Porcine epidemic diarrhea coronavirus (QIAP1401)

Row | SMILES | free fatty acids and glycerol concentrations in lung tissues [1] | progeny virus numbers in lung tissues [1] | virus gene numbers in lung tissues [1] | lung lesions, including interstitial pneumonia, and number of virus-positive cells [1] | number of lipid droplets in bronchiolar epithelial cells [1] | viral antigen in the bronchiolar epithelial cells [1] | survival rate [1, 11] | survival rate, weight loss, and clinical symptoms [1] | SI (CC50/IC50) [2] | SI (CC50/IC50) [4] | SI (CC50/IC50) [6] | copies of genomes of each virus [7] | production of progenies of each virus [7] | SI (CC50/IC50) [8] | SI (CC50/IC50) (SARS-CoV-2 (KCDC03)) | IC50 (SARS-CoV-2 (KCDC03)) [nM] | SI (CC50/IC50) [3, 13] | progeny virus number [9] | viral genome copy number [9] | SI (CC50/IC50) ([5]; Influenza A virus (H1N1) (PR8)) | also measured
1 | COc1nn(-c2ccc(NC(=O)OCc3ccccc3)c(C)c2)c(=O)o1 [CAY10499] | significant decrease | significant decrease | significant decrease | alleviation and reduction | did not decrease significantly | significant reduction | 50% | improvement | 11 | 21 | 4 | reduced | reduced | 8 | 62 | 1540 |  |  |  |  | IC50 [2]: 7300 nM; SI (CC50/IC50) [3]: 30; IC50 [3]: 3190 nM; IC50 [4]: 4210 nM; IC50 [5]: 4130 nM; SI (CC50/IC50) [5]: 27; IC50 [6]: 20800 nM; IC50 [8]: 11800 nM
2 | CN(C)C(=O)Nc1cccc(-c2ccc(N(C)C)cc2)c1 [Atglistatin, 3-(4′-(dimethylamino)-(1,1′-biphenyl)-3-yl)-1,1-dimethylurea] | significant decrease | significant decrease | significant decrease | alleviation and reduction | did not decrease significantly | significant reduction | 60% and 62.5% | improvement | 152 | 84 | 32 | reduced | reduced | 72 | 154 | 1470 | 116 | significantly reduced | significantly reduced | 251 | survival rate [1, 12]: 62.5%; number of viral genome copies [10]: significantly reduced
3 | CCN(C)C(=O)Nc1cccc(-c2ccc(N(C)C)cc2)c1 [DABPU-EM, 3-(4′-(dimethylamino)-(1,1′-biphenyl)-3-yl)-1-ethyl-1-methylurea] | significantly reduced | significantly reduced | significantly reduced | alleviation and reduction | no significant decrease | significantly decreasing | 50% | improvement | 54 | 78 | 32 | reduced | reduced | 62 | 122 | 1710 | 108 | significantly reduced | significantly reduced | 127 | number of viral genome copies [10]: significantly reduced
4 | CCN(CC)C(=O)Nc1cccc(-c2ccc(N(C)C)cc2)c1 [DABPU-DE] | significantly reduced | significantly reduced | significantly reduced | alleviation and reduction | no significant decrease | significantly decreasing | 68.8% | improvement | 158 | 95 | 36 | reduced | reduced | 81 | 185 | 1200 | 128 | significantly reduced | significantly reduced | 207 | survival rate [1, 12]: 68.8%; IC50 [2]: 1120 nM; IC50 [3]: 1620 nM; IC50 [4]: 2290 nM; IC50 ([5]; […], drug added after 12 hours, additional 12 hours): 1030 nM; number of viral genome copies [10]: significantly reduced; IC50 [6]: 5220 nM; IC50 [8]: 2770 nM
